Columns and labels:
[1] = test system: HCT116 p53^+/+; test: Cytotoxicity MTS assay, 72 h; type: cell-based, human; conditions: Homo sapiens, HCT-116; HCT116 p53^+/+; 72 h; MTS
Excerpt: (§1) The human colon carcinoma cell line HCT116 wild type (p53^+/+), human breast carcinoma cell line MCF-7 and glioblastoma cell line Hs683 were obtained from ATCC. The glioma cell line U-251 was purchased from Sigma Aldrich and the normal human fibroblast cell lines NHDF from PromoCell. The human colon cancer cell line HCT116 with a p53 deletion (p53^-/-) was kindly provided by Prof. M. Rusin from the Maria Sklodowska-Curie Memorial Cancer Centre and Institute of Oncology in Gliwice, Poland. Cells were grown as monolayer cultures in Dulbecco’s modified Eagle’s medium with an antibiotic gentamicin (200 μL/100 mL medium) in 75 cm^2 flasks (Nunc). DMEM for HCT116, MCF-7, U-251, Hs683 were supplemented with 12% heat-inactivated fetal bovine serum (Sigma) and for NHDF with 15% non-inactivated fetal bovine serum (Sigma). All the cell lines were cultured under standard conditions at 37°C in a humidified atmosphere at 5% CO2.
(§2) The cells were seeded in 96-well plates (Nunc) at a density of 5,000 cells/well (HCT116, MCF-7, U-251, Hs683) and 4,000 cells/well (NHDF) and incubated at 37°C for 24 h. The assay was performed following a 72 h incubation with varying concentrations of the compounds that were tested. Then, 20 μL of The CellTiter 96®AQueous One Solution-MTS (Promega) solution was added to each well (with 100 μL DMEM without phenol red) and incubated for 1 h at 37°C. The optical densities of the samples were analyzed at 490 nm using a multi-plate reader (Synergy 4, Bio Tek). Results were expressed as a percentage of the control and calculated as the inhibitory concentration (IC50) values using GraphPad Prism 5. The IC50 parameter was defined as the compound concentration that was necessary to reduce the proliferation of cells to 50% of the untreated control. Each individual compound was tested in triplicate in a single experiment with each experiment being repeated four to five times.

[2] = test system: HCT116 p53^-/-; test: Cytotoxicity MTS assay, 72 h; type: cell-based, human; conditions: Homo sapiens, HCT-116; HCT116 p53^-/-; 72 h; MTS
Excerpt: as §1, §2

[3] = test system: Hs683; test: Cytotoxicity MTS assay, 72 h; type: cell-based, human; conditions: Homo sapiens, Hs 683; Hs683; 72 h; MTS
Excerpt: as §1, §2

[4] = test system: MCF-7; test: Cytotoxicity MTS assay, 72 h; type: cell-based, human; conditions: Homo sapiens, MCF7; MCF-7; 72 h; MTS
Excerpt: as §1, §2

[5] = test system: U-251; test: Cytotoxicity MTS assay, 72 h; type: cell-based, human; conditions: Homo sapiens; U-251; 72 h; MTS
Excerpt: as §1, §2

[6] = test system: NHDF; test: Cytotoxicity MTS assay, 72 h; type: cell-based; conditions: Homo sapiens, NHDF normal fibroblasts
Excerpt: as §1, §2

`Nc1cccnc1C=NNC(=S)N1CCN(c2ccccc2)CC1` [L^1, N’-[(3-aminopyridin-2-yl)methylidene]-4-phenylpiperazine-1-carbothiohydrazide] showed an IC50 [1] of 1.52 ± 0.445 µM, an IC50 [2] of 0.128 ± 0.012 µM and an IC50 [3] of 1.44 ± 0.358 µM. The IC50 [4] was 0.532 ± 0.145 µM, the IC50 [5] was 0.403 ± 0.09 µM and the IC50 [6] was greater than 25 µM. The melting point was 189 to 190 °C.

`Nc1cccnc1C=NNC(=S)N1CCN(c2ccc(F)cc2)CC1` [L^2, N’-[(3-aminopyridin-2-yl)methylidene]-4-(4-fluorophenyl)piperazine-1-carbothiohydrazide] showed an IC50 [1] of 0.526 ± 0.077 µM, an IC50 [2] of 0.152 ± 0.074 µM and an IC50 [3] of 2.49 ± 0.512 µM. For the same molecule, the IC50 [4] was 0.36 ± 0.111 µM, the IC50 [5] was 0.887 ± 0.158 µM and the IC50 [6] was greater than 25 µM. It also gave a melting point of 210 to 211 °C.

In the case of `COc1ccc(N2CCN(C(=S)NN=Cc3ncccc3N)CC2)cc1` [L^4, N’-[(3-aminopyridin-2-yl)methylidene]-4-(4-methoxyphenyl)piperazine-1-carbothiohydrazide], the IC50 [1] is reported as 1.33 ± 0.209 µM, the IC50 [2] is reported as 0.185 ± 0.088 µM and the IC50 [3] is reported as 4.46 ± 0.954 µM. It also gave an IC50 [4] of 0.424 ± 0.149 µM, an IC50 [5] of 0.649 ± 0.17 µM and an IC50 [6] greater than 25 µM. For the same molecule, the melting point was 195 to 196 °C.

With `N#Cc1ccc(N2CCN(C(=S)NN=Cc3ncccc3N)CC2)cc1` [L^5, N’-[(3-aminopyridin-2-yl)methylidene]-4-(4-cyanophenyl)piperazine-1-carbothiohydrazide] the IC50 [1] was 1.45 ± 0.452 µM, the IC50 [2] was 0.746 ± 0.354 µM and the IC50 [3] was 10.1 ± 2.64 µM. It also gave an IC50 [4] of 3.81 ± 1.02 µM, an IC50 [5] of 2.57 ± 0.675 µM and an IC50 [6] greater than 25 µM. The melting point was 209 to 210 °C.

Molecule `Nc1cccnc1C=NNC(=S)N1CCN(c2ccc(C(F)(F)F)cc2[N+](=O)[O-])CC1` [L^6, N’-[(3-aminopyridin-2-yl)methylidene]-4-[2-nitro-4-(trifluoromethyl)phenyl]piperazine-1-carbothiohydrazide] has an IC50 [1] of 0.139 ± 0.016 µM, an IC50 [2] of 0.27 ± 0.007 µM and an IC50 [3] of 1.89 ± 0.812 µM. It also gave an IC50 [4] of 0.47 ± 0.097 µM, an IC50 [5] of 0.381 ± 0.042 µM and an IC50 [6] greater than 25 µM. It also gave a melting point of 179 to 180 °C.

Molecule `CC(C)(C)OC(=O)N1CCN(C(=S)NN=Cc2ncccc2N)CC1` [L^7, tert-butyl 4-({2-[(3-aminopyridin-2-yl)methylidene]hydrazinyl}carbonothioyl)piperazine-1-carboxylate] has an IC50 [1] of 0.762 ± 0.238 µM, an IC50 [2] of 1.13 ± 0.049 µM and an IC50 [3] of 4.62 ± 1.03 µM. It also gave an IC50 [4] of 2.54 ± 0.4 µM, an IC50 [5] of 3.08 ± 1.27 µM and an IC50 [6] greater than 25 µM. It also gave a melting point of 193 to 194 °C.
